Source: patent US6603046B1, “Bis-aromatic a,β-unsaturated ketones” (Lica Pharmaceuticals A/S, priority 1992, dated 2003)
In brackets after ≈: the same amount, converted by molar mass. Read-outs that look alike come from different tables or passages of the source.

Experiments:
L. major amastigotes = L. major amastigotes in human macrophages, Giemsa counting (Example 6); type: cell-based, Leishmania major
Protocol: Macrophage culture. The method used in this study was a modification of the one described by Berman et al. (1979). Human peripheral blood monocytes were obtained by Ficoll-Hypaque fractionation of blood from the Blood Bank, Rigshospitalet, Copenhagen, Denmark. Washed cells were suspended in medium RPMI-199 containing penicillin (50 U/ml), and streptomycin (50 μg/ml), 25 mM Hepes, 4 mM L-glutamine, and 10% heat inactivated fetal calf serum (56° C., 30 min). One milliliter of suspension containing 1×10^6 mononuclear cells was added to each well (16 mm in diameter, with one piece of cover glass in 12 mm diameter) of 24 wells of plastic culture trays (Nunc, Denmark). After 4 h and again after 3 days of incubation at 37° C. in 5% CO2-95% air, old medium was removed and washed with warm fresh medium three times, and then replaced with warm fresh medium.
Infection of macrophages with L. major promastigotes. After 6 days incubation the old medium was removed, and one milliliter of 1×10^7 4 days culture of L. major promastigotes (same promastigotes culture as in Example 4) was added to each well. After 24 h infection, macrophage cultures were washed three times with warm fresh medium and replenished with warm fresh medium with different concentrations of licochalcone A or medium alone. The medium was changed every 3 days. After infection, day 3 and day 6 a certain number of macrophage cultures were fixed with absolute methanol, stained with 5% Giemsa stain for 10 min, and examined by light microscopy (×1,000). The percentage of macrophages that contained amastigotes and the number of amastigotes present per infected macrophage were determined in replicate cultures by counting 200 cells per well.

[1] = system: Staphylococcus aureus ATCC 25923; assay: MIC on control strain, aerobic and microaerophilic (Example 18); type: cell-based; conditions: ATCC25923, 2 h, 2 hours incubation
Protocol: Staphylococcus aureus ATCC 25923 was used as control strain. The Helicobacter pylori strains were subcultured on chocolate agar plates with cysteine in a microaerophilic atmosphere at 37° C. for 72 hours and kept frozen at −80° C. until assayed.
The MIC rows were incubated under microaerophilic conditions for two hours. Hereafter aliquots of 10 μl were taken from all dilution steps and plated on chocolate agar with cysteine and incubated in a microaerophilic atmosphere for 72 hours at 37° C. The control strain Staphylococcus aureus was incubated both aerobically and microaerophilically at 37° C. for 24 hours. All plates were read by the Karber method.

L. pneumophilia = assay: microbe, parasite or virus in culture; type: cell-based; conditions: Legionella pneumophila
[2] = system: L. donovani promastigotes; assay: In vitro growth of L. donovani promastigotes, 3H-thymidine uptake (Example 4); type: cell-based; conditions: Leishmania donovani; for inhibition at 1 µg/mL: 1 μg/ml; for inhibition at 2 µg/mL: 2 μg/ml; for inhibition at 5 µg/mL: 5 μg/ml; for inhibition at 10 µg/mL: 10 μg/ml; for inhibition at 20 µg/mL: 20 μg/ml
P. falciparum = P. falciparum growth in vitro (Table 14.1, strain not stated); type: cell-based; conditions: Plasmodium falciparum, read-out: inhibition of malaria parasites (middle figure) (converted)
Outline: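 Parasitized erythrocytes (~1% parasitemia) in RPMI with graded compound concentrations, cultured 48 h. 3H-hypoxanthine added for the final 24 h. Growth measured as 3H-hypoxanthine incorporation into parasite DNA by liquid scintillation.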

Sarcina lutea = assay: MIC, macrodilution (Example 17); type: cell-based; conditions: Micrococcus luteus; 1 strain
[3] = system: L. major in human PBM-derived macrophages; assay: L. major in human PBM-derived macrophages, microscopic counting (Example 7); type: cell-based, Leishmania major
[4] = read-out: percentage inhibition of 3H-thymidine uptake (mean ± SEM), 3-day culture
[5] = read-out: percentage inhibition of 3H-thymidine uptake (mean ± SEM), 6-day culture
[6] = 3 days after infection, 0.5 μg/ml
[7] = 3 days after infection, 1 μg/ml
[8] = 6 days after infection, 0.5 μg/ml
[9] = 6 days after infection, 1 μg/ml

C=CC(C)(C)c1cc(/C=C/C(=O)c2ccc(O)cc2)c(OC)cc1O [Licochalcone A, licochalcone A]
number of amastigotes/100 macrophages (L. major amastigotes; 1 μg/ml, 3-day): 54 | number of infected macrophages/100 macrophages (L. major amastigotes; 1 μg/ml, 3-day): 43 | number of amastigotes/100 macrophages (L. major amastigotes; 1 μg/ml, 6-day): 45/45/100 | number of infected macrophages/100 macrophages (L. major amastigotes; 1 μg/ml, 6-day): 45/45/100 | number of amastigotes/100 macrophages (L. major amastigotes; 5 μg/ml, 3-day): 18 | number of infected macrophages/100 macrophages (L. major amastigotes; 5 μg/ml, 3-day): 7 | number of amastigotes/100 macrophages (L. major amastigotes; 5 μg/ml, 6-day): 11 | number of infected macrophages/100 macrophages (L. major amastigotes; 5 μg/ml, 6-day): 5 | number of amastigotes/100 macrophages (L. major amastigotes; 10 μg/ml, 3-day): 10 | number of infected macrophages/100 macrophages (L. major amastigotes; 10 μg/ml, 3-day): 5 | number of amastigotes/100 macrophages (L. major amastigotes; 10 μg/ml, 6-day): 6 | number of infected macrophages/100 macrophages (L. major amastigotes; 10 μg/ml, 6-day): 4 | MIC ([1]; microaerophilic conditions): > 500 µg/mL | MIC ([1]; normal atmosphere): 4 µg/mL (≈ 11.8 µM) | MIC (L. pneumophilia; L. pneumophilia serogr. 1, 4 strains): 1 to 4 µg/mL (≈ 2.96 to 11.8 µM) | MIC (L. pneumophilia; L. pneumophilia serogr. 2-7, 6 strains): 2 to 4 µg/mL (≈ 5.91 to 11.8 µM) | MIC (L. pneumophilia; read-out: MIC-values, clinical isolates): 1 to 4 µg/mL (≈ 2.96 to 11.8 µM) | inhibition at 1 µg/mL [2, 4]: 15.2 ± 14.5% | inhibition at 2 µg/mL [2, 4]: 23.5 ± 16.4% | inhibition at 5 µg/mL [2, 4]: 53.7 ± 14% | inhibition at 10 µg/mL [2, 4]: 81.5 ± 8% | inhibition at 20 µg/mL [2, 4]: 96.7 ± 0.8% | inhibition at 1 µg/mL [2, 5]: 30.4 ± 23.8% | inhibition at 2 µg/mL [2, 5]: 42.2 ± 16.6% | inhibition at 5 µg/mL [2, 5]: 70.1 ± 12.4% | inhibition at 10 µg/mL [2, 5]: 91.9 ± 3.1% | inhibition at 20 µg/mL [2, 5]: 98.3 ± 0.8% | inhibition at 0.5 µg/mL (P. falciparum; 0.5 μg/ml): 39% | inhibition at 1 µg/mL (P. falciparum; 1 μg/ml): 69% | inhibition at 5 µg/mL (P. falciparum; 5 μg/ml): 98% | inhibition at 10 µg/mL (P. falciparum; 10 μg/ml): 98% | MIC (Sarcina lutea): 4 µg/mL (≈ 11.8 µM) | % of amast. [3, 6]: 91.6% | % of infec. cells [3, 6]: 14.0% | amast. per cell [3, 6]: 1.7 | proma. per cell [3, 6]: 0.1 | total amast. [3, 6]: 23.3 ×10^6 | total proma. [3, 6]: 2.0 ×10^6 | % of amast. [3, 7]: 88.2% | % of infec. cells [3, 7]: 10.7% | amast. per cell [3, 7]: 1.7 | proma. per cell [3, 7]: 0.2 | total amast. [3, 7]: 17.7 ×10^6 | total proma. [3, 7]: 2.0 ×10^6 | % of infec. cells ([3]; 3 days after infection, 5 μg/ml): 0% | % of infec. cells ([3]; 3 days after infection, 10 μg/ml): 0% | % of amast. [3, 8]: 100% | % of infec. cells [3, 8]: 8.0% | amast. per cell [3, 8]: 1.7 | proma. per cell [3, 8]: 0 | total amast. [3, 8]: 14 ×10^6 | total proma. [3, 8]: 0 ×10^6 | % of amast. [3, 9]: 100% | % of infec. cells [3, 9]: 7.3% | amast. per cell [3, 9]: 2.2 | proma. per cell [3, 9]: 0 | total amast. [3, 9]: 16 ×10^6 | total proma. [3, 9]: 0 ×10^6 | % of infec. cells ([3]; 6 days after infection, 5 μg/ml): 0% | % of infec. cells ([3]; 6 days after infection, 10 μg/ml): 0%
